Measured values: paper PMC10178204, “Peptaibol Analogs Show Potent Antibacterial Activity against Multidrug Resistant Opportunistic Pathogens” (International Journal of Molecular Sciences, 2023)
≈ marks a conversion by molar mass, not a printed value. Where two headings read alike, the source gives them in different places. Non-standard residues stand in square brackets, D forms with d. Residues, ends and D or L forms follow the SMILES beside them. *: point of attachment. Leu(ol) = CC(C)C[C@H](N)CO; Octanoyl = CCCCCCCC(=O)*; Api = NC1(C(=O)O)CCNCC1; Aib = CC(C)(N)C(=O)O

Columns and labels:
[1] = test system: blood agar plate (Columbia CNA Agar); assay: Hemolysis on blood agar plate; settings: 35 ± 2 °C, 24 h; for Hemolysis (class): 50 μg peptide (2 μL of 25 mg/mL in DMSO) spotted on blood agar, visual, triplicate
Protocol: Hemolysis zones were visually determined and measured. […] For two additional peptides (6 and 15), only a small hemolysis zone (diameter 4–5 mm) was visible, as compared to that of the positive control (Triton X-100, 13 mm).
Briefly, 2 μL of each peptide solution in DMSO (25 mg/mL), corresponding to 50 μg, was spotted on the surface of a blood agar plate (Columbia CNA Agar, Becton Dickinson Italia S.p.A., Florence, Italy). The plate was then incubated at 35 ± 2 °C for 24 h and visually inspected for the presence of hemolysis zones (see Figure S13, Supplementary Material). The experiment was performed in triplicate. Table 2 reports the average value of the diameter of hemolysis zones measured in each individual experiment. Triton X-100 was used as a positive control (diameter of the hemolysis zone: 13 mm), while DMSO was used as a negative control.
Figure S13. Implementation of the hemolysis test as described in Bechlars et al.. After spotting
2 µL (50 µg) of each compound at a random location on the blood agar plate and incubation at 35 ±
2 °C for 24 h, the plates were manually inspected for the presence of hemolysis zones. Triton X-100
and DMSO were used as the positive and negative controls, respectively. Results were interpreted
(1 picture or pasted object on this page, not shown here)

[2] = test system: Bacillus subtilis ATCC 6633
Text: (§1) The antibacterial activity of the peptides was initially assessed on a panel of representative Gram-positive and Gram-negative organisms of high clinical relevance and commonly responsible for bacterial infections in both animals and humans. Bacillus subtilis ATCC 6633 (Bsu) was also included as a rod-shaped model Gram-positive organism. This first panel comprised: Enterococcus faecalis ATCC 29212 (Efa); Streptococcus pyogenes ATCC 12344 (Spy); and Staphylococcus aureus ATCC 25923 (Sau); Gram-negative: Escherichia coli CCUGT (Eco), Klebsiella pneumoniae ATCC 13833 (Kpn), Acinetobacter baumannii ATCC 17978 (Aba), and Pseudomonas aeruginosa ATCC 27853 (Pae) (Table 2). Both the minimum inhibitory concentration (MIC, Table 2) and the minimum bactericidal concentration (MBC, Table S1, Supporting Material) were determined.
(§2) The minimum inhibitory concentration (MIC) and the minimum bactericidal concentration (MBC) of the compounds were determined in triplicate using Mueller–Hinton broth (MHB). […] Therefore, we decided to dissolve all peptides in DMSO to a final concentration of 25 mg/mL, for consistency. The bacteria inoculum was 5 × 10^5 CFU/mL, as recommended by CLSI (Document M07-A10, 2015). […] Reference-type strains, including representatives of both Gram-positive bacteria (Bacillus subtilis ATCC 6633, Enterococcus faecalis ATCC 29212, Staphylococcus aureus ATCC 25923, the methicillin-resistant Staphylococcus aureus ATCC 43300 (MRSA), Streptococcus pyogenes ATCC 12344) and Gram-negative bacteria (Escherichia coli CCUGT, Klebsiella pneumoniae ATCC 13833, Pseudomonas aeruginosa ATCC 27853, and Acinetobacter baumannii ATCC 17978), were acquired from ATCC or CCUG culture collections. Other antibiotic-resistant clinical isolates were present in our collection at the University Teaching Hospital (Azienda Ospedaliero-Universitaria Senese ‘Santa Maria alle Scotte’) in Siena, Tuscany, Italy. Specifically, MDR carbapenem-hydrolyzing class D β-lactamase-producing Acinetobacter baumannii and metallo-β-lactamase-producing Pseudomonas aeruginosa were used in this study (Table 4).

Escherichia coli CCUGT = settings: 18 h; for MIC Eco: MHB, 5 × 10^5 CFU/mL, 35 °C, triplicate
Text: as §1, §2

[3] = test system: Staphylococcus aureus ATCC 25923
Text: as §1, §2

[4] = test system: Acinetobacter baumannii ATCC 17978; settings: for MIC Aba: MHB, 5 × 10^5 CFU/mL, 18 h, 35 °C, triplicate
Text: as §1, §2

[5] = test system: Enterococcus faecalis ATCC 29212
Text: as §1, §2

[6] = test system: Pseudomonas aeruginosa ATCC 27853; settings: for MIC Pae: MHB, 5 × 10^5 CFU/mL, 18 h, 35 °C, triplicate
Text: as §1, §2

[7] = test system: Klebsiella pneumoniae ATCC 13833; settings: for MIC Kpn: MHB, 5 × 10^5 CFU/mL, 18 h, 35 °C, triplicate
Text: as §1, §2

[8] = test system: Streptococcus pyogenes ATCC 12344
Text: as §1, §2

[9] = MHB, 5 × 10^5 CFU/mL, 18 h, 35 °C, triplicate

SMILES	Hemolysis (class) [1]	MBC Bsu [2, 9]	MIC Bsu [2, 9]	MIC Eco (Escherichia coli CCUGT)	MIC Sau [3, 9]	MIC Aba [4]	MBC Efa [5, 9]	MIC Efa [5, 9]	MIC Pae [6]	MIC Kpn [7]	MBC Spy [8, 9]	MIC Spy [8, 9]	Hemolytic activity (in words) ([1]; 50 μg spotted on blood agar)	further results
CCCCCCCC(=O)NC(C)(C)C(=O)NCC(=O)N[C@@H](CC(C)C)C(=O)NC(C)(C)C(=O)NCC(=O)NCC(=O)N[C@@H](CC(C)C)C(=O)NC(C)(C)C(=O)NCC(=O)N[C@H](C(=O)N[C@H](CO)CC(C)C)[C@@H](C)CC [Peptide 0, Trichogin GA IV, reference compound] (Octanoyl-[Aib]GL[Aib]GGL[Aib]GI[Leu(ol)])	-	32 µg/mL (≈ 30 µM)	16 µg/mL (≈ 15 µM)	> 128 µg/mL	> 128 µg/mL	> 128 µg/mL	32 µg/mL (≈ 30 µM)	16 µg/mL (≈ 15 µM)	> 128 µg/mL	> 128 µg/mL	16 µg/mL (≈ 15 µM)	16 µg/mL (≈ 15 µM)		
CCCCCCCC(=O)NC(C)(C)C(=O)NCC(=O)N[C@@H](CC(C)C)C(=O)N[C@@H](CC(C)C)C(=O)NCC(=O)NCC(=O)N[C@@H](CC(C)C)C(=O)NC(C)(C)C(=O)NCC(=O)N[C@H](C(=O)N[C@@H](CC(C)C)C(N)=O)[C@@H](C)CC [Peptide 3, 1-Oct-Aib-Gly-Leu-Leu-Gly-Gly-Leu-Aib-Gly-Ile-Leu-NH2] (Octanoyl-[Aib]GLLGGL[Aib]GIL-NH2)	-		> 128 µg/mL	> 128 µg/mL	> 128 µg/mL	> 128 µg/mL		> 128 µg/mL	> 128 µg/mL	> 128 µg/mL		> 128 µg/mL	no hemolysis detected	
CCCCCCCC(=O)NC(C)(C)C(=O)NCC(=O)N[C@@H](CC(C)C)C(=O)NC(C)(C)C(=O)N[C@@H](CCCCN)C(=O)NC(C)(C)C(=O)N[C@@H](CC(C)C)C(=O)NC(C)(C)C(=O)NCC(=O)N[C@H](C(=O)N[C@@H](CC(C)C)C(N)=O)[C@@H](C)CC [Peptide 6b, 1-Oct-Aib-Gly-Leu-Aib-Lys-Aib-Leu-Aib-Gly-Ile-Leu-NH2] (Octanoyl-[Aib]GL[Aib]K[Aib]L[Aib]GIL-NH2)	-	128 µg/mL (≈ 109 µM)	128 µg/mL (≈ 109 µM)	> 128 µg/mL	128 µg/mL (≈ 109 µM)	> 128 µg/mL	128 µg/mL (≈ 109 µM)	128 µg/mL (≈ 109 µM)	> 128 µg/mL	> 128 µg/mL	32 µg/mL (≈ 27.2 µM)	8 µg/mL (≈ 6.79 µM)		MBC Sau [3, 9]: 128 µg/mL (≈ 109 µM)
CCCCCCCC(=O)NC(C)(C)C(=O)NCC(=O)N[C@@H](CC(C)C)C(=O)NC(C)(C)C(=O)NCC(=O)NCC(=O)N[C@@H](CC(C)C)C(=O)NC1(C(=O)NCC(=O)N[C@H](C(=O)N[C@@H](CC(C)C)C(N)=O)[C@@H](C)CC)CCNCC1 [Peptide 8, 1-Oct-Aib-Gly-Leu-Aib-Gly-Gly-Leu-Api-Gly-Ile-Leu-NH2] (Octanoyl-[Aib]GL[Aib]GGL[Api]GIL-NH2)	+		32 µg/mL (≈ 28.6 µM)	> 128 µg/mL	> 128 µg/mL	> 128 µg/mL		16 µg/mL (≈ 14.3 µM)	> 128 µg/mL	> 128 µg/mL		16 µg/mL (≈ 14.3 µM)	hemolytic activity	Hemolysis (d, diameter of hemolysis zone) ([1]; 50 μg spotted on blood agar, average of triplicate): 7 mm
CCCCCCCC(=O)NC(C)(C)C(=O)N[C@@H](CCCCN)C(=O)N[C@@H](CCCCN)C(=O)N[C@@H](CC(C)C)C(=O)NC(C)(C)C(=O)NCC(=O)N[C@H](C(=O)N[C@@H](CC(C)C)C(N)=O)[C@@H](C)CC [Peptide 12, 1-Oct-Aib-Lys-Lys-Leu-Aib-Gly-Ile-Leu-NH2] (Octanoyl-[Aib]KKL[Aib]GIL-NH2)			4 µg/mL (≈ 4.14 µM)	16 µg/mL (≈ 16.6 µM)	16 µg/mL (≈ 16.6 µM)	32 µg/mL (≈ 33.1 µM)		32 µg/mL (≈ 33.1 µM)	64 µg/mL (≈ 66.2 µM)	64 µg/mL (≈ 66.2 µM)		16 µg/mL (≈ 16.6 µM)		MBC Bsu ([2]; ATCC 6633, 18 h): 16 µg/mL (≈ 16.6 µM); MBC Eco (Escherichia coli CCUGT; CCUGT): 64 µg/mL (≈ 66.2 µM); MBC Sau ([3]; ATCC 25923, 18 h): 16 µg/mL (≈ 16.6 µM); MBC Aba ([4]; ATCC 17978, 18 h): 32 µg/mL (≈ 33.1 µM); MBC Efa ([5]; ATCC 29212, 18 h): 32 µg/mL (≈ 33.1 µM); MBC Pae ([6]; ATCC 27853, 18 h): > 128 µg/mL; MBC Kpn ([7]; ATCC 13833, 18 h): > 128 µg/mL; MBC Spy ([8]; ATCC 12344, 18 h): 16 µg/mL (≈ 16.6 µM)
